In test [1] the target is Carbonic anhydrase 7 (Homo sapiens, UniProt P43166).
Description: Inhibition of human CA7 by stopped-flow CO2 hydration assay
The target in test [2] is Carbonic anhydrase 14 (Homo sapiens, UniProt Q9ULX7).
Description: Inhibition of human CA14 by stopped-flow CO2 hydration assay
The target of test [3] is Carbonic anhydrase 5A, mitochondrial (Homo sapiens, UniProt P35218).
Description: Inhibition of human CA5A by stopped-flow CO2 hydration assay
Test [4] has as its target Carbonic anhydrase 9 (Homo sapiens, UniProt Q16790).
Description: Inhibition of human CA9 by stopped-flow CO2 hydration assay
Test [5] addresses Carbonic anhydrase 12 (Homo sapiens, UniProt O43570).
Description: Inhibition of human CA12 by stopped-flow CO2 hydration assay
Test [6] has as its target Carbonic anhydrase 4 (Homo sapiens, UniProt P22748).
Description: Inhibition of human CA4 by stopped-flow CO2 hydration assay
Test [7] deals with Carbonic anhydrase 13 (Mus musculus, UniProt Q9D6N1).
Description: Inhibition of mouse CA13 by stopped-flow CO2 hydration assay
Test [8] has as its target Carbonic anhydrase 6 (Homo sapiens, UniProt P23280).
Description: Inhibition of human CA6 by stopped-flow CO2 hydration assay
In test [9] the target is Carbonic anhydrase 5B, mitochondrial (Homo sapiens, UniProt Q9Y2D0).
Description: Inhibition of human CA5B by stopped-flow CO2 hydration assay
Test [10] concerns the target Carbonic anhydrase 1 (Homo sapiens, UniProt P00915).
Description: Inhibition of human CA1 by stopped-flow CO2 hydration assay
Test [11] has as its target Carbonic anhydrase 3 (Homo sapiens, UniProt P07451).
Description: Inhibition of human CA3 by stopped-flow CO2 hydration assay
The target of test [12] is Carbonic anhydrase 2 (Homo sapiens, UniProt P00918).
Description: Inhibition of human CA2 by stopped-flow CO2 hydration assay

pKi: −log10 of the molar value.

Sequence of Carbonic anhydrase 6 (P23280 whole entry): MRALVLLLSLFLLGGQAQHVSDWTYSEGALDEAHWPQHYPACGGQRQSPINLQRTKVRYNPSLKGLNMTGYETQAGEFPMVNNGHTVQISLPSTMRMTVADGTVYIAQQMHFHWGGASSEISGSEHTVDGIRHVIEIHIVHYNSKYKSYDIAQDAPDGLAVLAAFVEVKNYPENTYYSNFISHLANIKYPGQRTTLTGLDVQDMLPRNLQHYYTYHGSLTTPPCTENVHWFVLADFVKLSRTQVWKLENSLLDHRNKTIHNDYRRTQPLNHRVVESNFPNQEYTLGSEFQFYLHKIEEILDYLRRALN
Sequence of Carbonic anhydrase 13 (Q9D6N1 whole entry): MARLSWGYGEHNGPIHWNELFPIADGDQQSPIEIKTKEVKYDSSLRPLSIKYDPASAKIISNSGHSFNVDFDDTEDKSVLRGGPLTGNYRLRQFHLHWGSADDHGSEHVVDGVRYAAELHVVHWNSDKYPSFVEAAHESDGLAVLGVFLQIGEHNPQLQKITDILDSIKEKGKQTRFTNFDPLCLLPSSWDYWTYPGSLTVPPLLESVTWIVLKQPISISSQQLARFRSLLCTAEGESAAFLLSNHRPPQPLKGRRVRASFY
Sequence of Carbonic anhydrase 1 (P00915 whole entry): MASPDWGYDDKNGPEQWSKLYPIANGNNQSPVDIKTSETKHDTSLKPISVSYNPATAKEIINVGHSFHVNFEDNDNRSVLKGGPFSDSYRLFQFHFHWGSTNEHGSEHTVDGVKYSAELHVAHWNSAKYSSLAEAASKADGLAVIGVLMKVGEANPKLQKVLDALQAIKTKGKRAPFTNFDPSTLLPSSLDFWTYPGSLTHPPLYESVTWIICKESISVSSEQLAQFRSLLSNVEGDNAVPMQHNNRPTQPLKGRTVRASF
Sequence of Carbonic anhydrase 12 (O43570 whole entry): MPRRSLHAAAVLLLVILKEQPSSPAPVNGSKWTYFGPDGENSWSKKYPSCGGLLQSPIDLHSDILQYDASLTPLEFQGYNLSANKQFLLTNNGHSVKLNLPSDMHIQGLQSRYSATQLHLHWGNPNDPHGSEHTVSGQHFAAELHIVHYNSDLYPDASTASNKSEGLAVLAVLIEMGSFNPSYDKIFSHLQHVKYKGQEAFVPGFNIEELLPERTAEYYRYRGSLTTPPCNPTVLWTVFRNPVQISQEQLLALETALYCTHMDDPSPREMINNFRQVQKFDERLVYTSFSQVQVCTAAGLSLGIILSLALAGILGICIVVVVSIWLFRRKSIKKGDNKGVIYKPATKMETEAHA
Sequence of Carbonic anhydrase 3 (P07451 whole entry): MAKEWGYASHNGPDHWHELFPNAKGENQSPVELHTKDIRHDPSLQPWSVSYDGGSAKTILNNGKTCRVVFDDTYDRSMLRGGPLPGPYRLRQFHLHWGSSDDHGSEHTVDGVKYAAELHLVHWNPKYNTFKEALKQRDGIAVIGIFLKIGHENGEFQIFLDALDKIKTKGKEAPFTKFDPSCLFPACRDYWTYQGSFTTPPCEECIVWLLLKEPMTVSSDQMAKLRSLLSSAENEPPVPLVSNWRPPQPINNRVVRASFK
Sequence of Carbonic anhydrase 5B, mitochondrial (Q9Y2D0 whole entry): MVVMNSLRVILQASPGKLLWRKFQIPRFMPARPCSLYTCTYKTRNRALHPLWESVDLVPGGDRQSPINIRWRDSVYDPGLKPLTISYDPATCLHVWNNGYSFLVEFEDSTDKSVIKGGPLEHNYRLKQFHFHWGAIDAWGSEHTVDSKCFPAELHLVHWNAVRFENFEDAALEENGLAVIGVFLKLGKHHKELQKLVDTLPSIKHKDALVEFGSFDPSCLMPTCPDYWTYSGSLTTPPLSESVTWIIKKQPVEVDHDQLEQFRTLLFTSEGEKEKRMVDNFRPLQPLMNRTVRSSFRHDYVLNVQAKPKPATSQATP
Sequence of Carbonic anhydrase 4 (P22748 whole entry): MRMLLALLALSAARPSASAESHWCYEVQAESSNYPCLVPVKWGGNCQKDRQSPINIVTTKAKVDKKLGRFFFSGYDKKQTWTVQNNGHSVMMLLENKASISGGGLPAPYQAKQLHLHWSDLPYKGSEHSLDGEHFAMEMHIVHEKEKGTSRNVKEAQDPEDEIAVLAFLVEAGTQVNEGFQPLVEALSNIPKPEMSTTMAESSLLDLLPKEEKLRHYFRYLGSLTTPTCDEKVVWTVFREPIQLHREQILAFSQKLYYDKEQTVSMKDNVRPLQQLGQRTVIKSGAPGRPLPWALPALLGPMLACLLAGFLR
Sequence of Carbonic anhydrase 14 (Q9ULX7 whole entry): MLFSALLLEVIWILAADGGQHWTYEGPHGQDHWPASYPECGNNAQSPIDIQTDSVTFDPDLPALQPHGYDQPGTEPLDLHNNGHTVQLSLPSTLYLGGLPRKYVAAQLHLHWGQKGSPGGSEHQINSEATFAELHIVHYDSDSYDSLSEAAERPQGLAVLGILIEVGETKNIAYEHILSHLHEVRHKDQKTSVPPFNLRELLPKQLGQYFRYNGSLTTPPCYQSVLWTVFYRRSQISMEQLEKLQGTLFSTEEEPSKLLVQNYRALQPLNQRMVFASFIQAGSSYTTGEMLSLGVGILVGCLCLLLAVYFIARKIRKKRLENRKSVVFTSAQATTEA
Sequence of Carbonic anhydrase 5A, mitochondrial (P35218 whole entry): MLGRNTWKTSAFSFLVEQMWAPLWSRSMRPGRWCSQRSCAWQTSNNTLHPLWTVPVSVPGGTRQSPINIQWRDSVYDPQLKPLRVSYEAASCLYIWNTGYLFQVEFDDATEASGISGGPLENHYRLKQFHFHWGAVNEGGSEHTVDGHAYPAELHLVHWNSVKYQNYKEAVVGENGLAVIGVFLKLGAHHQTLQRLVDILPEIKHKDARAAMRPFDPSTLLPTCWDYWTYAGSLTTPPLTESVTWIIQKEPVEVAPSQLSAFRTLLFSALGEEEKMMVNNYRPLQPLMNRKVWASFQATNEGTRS
Sequence of Carbonic anhydrase 7 (P43166 whole entry): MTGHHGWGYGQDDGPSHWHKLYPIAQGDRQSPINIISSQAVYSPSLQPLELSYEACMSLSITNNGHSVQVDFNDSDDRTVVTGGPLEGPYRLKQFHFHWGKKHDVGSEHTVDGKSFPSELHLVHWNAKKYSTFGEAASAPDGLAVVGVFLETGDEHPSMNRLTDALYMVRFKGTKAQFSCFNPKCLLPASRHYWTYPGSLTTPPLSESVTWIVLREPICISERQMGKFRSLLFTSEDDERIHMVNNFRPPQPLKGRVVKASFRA

Turning to `O=C(O)c1cc(O)c(O)c(O)c1` [GALLIC ACID], the pKi was 5.22 in [1]; 5.15 in test [2]; 5.39 in test [3]; 5.16 in test [4]; 5.11 in [5]; 5.01 in test [6]. Also, the pKi is 5.01 in test [7]; 5.21 in [8]; 5.00 in [9]; 5.49 in test [10]; 5.13 in test [11]; 5.65 in test [12].

For `COc1cc(C(=O)O)cc(OC)c1O` [SYRINGIC ACID], the pKi is 5.11 in test [1]; 5.04 in test [2]; 5.20 in test [3]; 5.09 in [4]; 5.05 in test [5]; 4.97 in test [6]. Also, the negative logarithm of the Ki (pKi) was 4.96 in test [7]; 5.12 in test [8]; 4.45 in test [9]; 5.38 in test [10]; 5.07 in [11]; 5.50 in [12].

For the compound `O=C(O)/C=C/c1ccc(O)cc1` [COUMARIC ACID], the pKi in test [1] was 5.28; in [2] it was 5.18; in [3], 5.22; in [4], 5.27; in test [5], 5.10; in [6], 5.02. For the same compound, the pKi in test [7] was 5.00; in [8], 5.17; in [9], 5.11; in test [10], 5.97; in [11], 5.12; in test [12] it was 6.01.

Regarding `COc1cc(/C=C/C(=O)O)ccc1O` [FERULATE], the negative logarithm of the Ki (pKi) in [1] is 5.13; in test [2] it was 5.03; in [3] it was 5.15; in test [4], 5.01; in test [5], 5.01; in [6], 4.97. The negative-log Ki (pKi) in test [7] is 4.91; in test [8] it was 5.07; in test [9], 4.98; in [10], 5.54; in test [11] it was 4.95; in test [12], 5.62.

With `O=c1oc2c(O)c(O)cc3c(=O)oc4c(O)c(O)cc1c4c23` [ELLAGIC ACID], the pKi in [1] was 5.20; in test [2], 5.05; in test [3] it was 5.12; in test [4], 5.03; in [5], 5.00; in test [6], 5.04. The pKi in test [7] was 4.99; in test [8], 5.15; in [9], 4.90; in test [10], 5.63; in test [11], 4.98.

Consider `O=c1c(O)c(-c2ccc(O)c(O)c2)oc2cc(O)cc(O)c12` [QUERCETIN], for which the pKi in test [1] is 5.32; in test [2], 5.27; in test [3], 5.17; in [4] it was 5.15; in test [5], 5.03; in [6], 5.10. Further, the pKi was 5.04 in test [7]; 5.21 in [8]; 4.92 in test [9]; 5.57 in [10]; 5.09 in test [11]; 5.60 in [12].

For `O=C(O)c1ccc(O)cc1` [PARABEN], the pKi in [1] is 5.39; in test [2], 5.21; in test [3] it was 5.44; in test [4], 5.43; in test [5] it was 5.20; in test [6] it was 5.11. In addition, the pKi in test [7] was 5.11; in test [8] it was 5.24; in test [10] it was 6.04; in test [11], 5.18.

The pKi is −log10 of the Ki, conventionally taken in molar units. Low values mean a high Ki, high ones a low Ki.

Source of the values: ChEMBL document CHEMBL1157641, “Carbonic anhydrase inhibitors. Inhibition of mammalian isoforms I-XIV with a series of natural product polyphenols and phenolic acids” (Bioorg Med Chem, 2010).
